Data reported in US11419852B2, “Beta-lactam compounds or salts thereof for use in long-acting prevention or treatment of a glucose metabolism disorder” (GLYCOLYSIS BIOMED CO., LTD., priority 2019, dated 2022).

Test system: db/db mice
Experiment: Histopathological assessment (H&E stain)
Assay type: in vivo
From the text: For histopathological assessment, all mice were sacrificed by 95% CO2 asphyxiation at the end of the study period. Their brain, liver, kidney, pancreas, and epididymal fat pads were removed, fixed in 10% phosphate-buffered formalin, and embedded in paraffin. Tissues embedded in paraffin were cut into […] sections that were then stained with hematoxylin-eosin (i.e., H&E stain).

Compound | Kidney histological changes (tubular degeneration and necrosis, mineralization, hyaline cast) (Ex 2, metformin-treated vs ertapenem-treated mice) | Injuries in brain, liver, kidney, pancreas, and epididymal fat pads (Ex 1, after 3 weeks 0.41 mg/g bw/day i.p.) | Severity and incidence of liver glycogen storage vs DB group (Ex 1, hepatocyte cytoplasm around central venous region) | Injuries in liver, kidney, pancreas, and epididymal fat pads (Ex 2)
CN(C)C(=N)N=C(N)N [Met, metformin] | more apparent |  |  | 
C[C@@H](O)[C@H]1C(=O)N2C(C(=O)O)=C(S[C@@H]3CN[C@H](C(=O)Nc4cccc(C(=O)O)c4)C3)[C@H](C)[C@H]12 [DMH, ertapenem] |  | no significant injuries | slighter | No significant injuries
